Values joined by “and” are separate entries in the source; they are usually repeats but may differ in a detail not shown here. Identical values can stand only once.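 Method: 48-hour compound exposure of cells in 96-well plates, five concentrations, linear interpolation of endpoints. GI50: concentration for 50% inhibition of growth. TGI: concentration producing complete growth inhibition.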
Tests used:
Assay in all cases: NCI-60 cell line screen, 48 h
[1] = tested on: SK-MEL-28 melanoma
[2] = tested on: HL-60(TB) leukemia
[3] = tested on: UO-31 renal
[4] = tested on: UACC-257 melanoma
[5] = tested on: HOP-62 NSCLC
[6] = tested on: OVCAR-3 ovarian
[7] = tested on: M14 melanoma
[8] = tested on: NCI-H522 lung
[9] = tested on: EKVX NSCLC
[10] = tested on: SNB-75 CNS

Compound | TGI [1] [µM] | TGI [2] | TGI [3] [µM] | TGI [4] | TGI [5] [µM] | TGI [6] [µM] | TGI [7] [µM] | TGI [8] | TGI [9] [µM] | TGI [10] [µM] | GI50 [1] | GI50 [2] | GI50 [3] | GI50 [4] | GI50 [5] | GI50 [6] | GI50 [7] | GI50 [8] | GI50 [9] [µM] | GI50 [10]
N#CC(C#N)=c1c2nsnc2c(=C(C#N)C#N)c2nsnc12 | 3.3 | 4.64 µM | 3.87 | 3.53 µM | 3.59 | 8.34 | 3.54 | 3.51 µM | 14.9 | 3.01 | – | – | – | – | – | – | – | – | – | –
c1cnn2ncc(-c3ccnc(Nc4ccc5c(c4)OCCO5)n3)c2c1 | 0.199 | 0.155 µM | > 25 | 0.198 µM | > 25 | 0.142 | 0.221 | 0.592 µM | 1.13 | 0.173 | 0.0544 µM | 0.0423 µM | 0.0917 µM | 0.0671 µM | 0.0958 µM | 0.0548 µM | 0.0699 µM | 0.116 µM | 0.0997 | 0.0671 µM
Clc1ccc2c(c1)N(c1ncnc3ccc(-c4cnc5[nH]ncc5c4)cc13)CC2 | > 100 | > 100 µM | > 100 | > 100 µM | > 100 | > 100 | > 100 | > 100 µM | > 100 | 0.517 | 0.77 µM | 0.411 µM | 0.151 µM | > 100 µM | 0.463 µM | 0.471 µM | 0.869 µM | 2.23 µM | 0.338 | 0.0804 µM
C=C1C2Oc3ccccc3C1N(c1ccccc1)O2 (stereo not given) | > 100 | > 100 µM | > 100 | > 100 µM | > 100 | > 100 | 67.1 | 80.8 µM | > 100 | > 100 | – | – | – | – | – | – | – | – | – | –
COC(=O)c1ccc2c(c1)C(=O)c1c-2n(CCCN=[N+]=[N-])c(=O)c2cc([N+](=O)[O-])ccc12 | > 100 | > 100 µM | > 100 | > 100 µM | 67.5 | > 100 | > 100 | > 100 µM | > 100 | 40.8 | > 100 µM | > 100 µM | > 100 µM | > 100 µM | 25.8 µM | > 100 µM | > 100 µM | 34.3 µM | 83.5 | 20.5 µM
C[C@]12C/C(=C/O)C(=O)C(O)=C1CC[C@@H]1C2CC[C@@]2(C)C1CC[C@@H]2O (stereo not given in full) | 48.2 | 41.8 µM | 31.3 | 62 µM | > 100 | 44.4 | 38.1 | 32 µM | 72.8 | 34.9 | – | – | – | – | – | – | – | – | – | –
Cc1ccc(-n2nc(C(C)(C)C)cc2NC(=O)NCc2cc(F)ccc2Oc2ccc3c(cnn3CCO)c2)cc1 | > 20.9 | > 10 µM and 10.1 µM | > 55.5 | > 10 µM and 10.4 µM | > 81.5 | > 76.5 | > 28.5 | > 10 µM and 37.8 µM | > 10 | > 100 | 0.511 µM and 0.989 µM | 1.41 µM and 2.09 µM | 1.33 µM and 2.76 µM | 1.19 µM and 2.32 µM | > 10 µM and 8.95 µM | > 10 µM and 7.65 µM | 0.649 µM and 1.31 µM | > 10 µM and 5.32 µM | > 10 | > 10 µM and 14.8 µM

Source: PubChem BioAssay (NCI)
